The values below come from patent US7135578B2, “Iminocyclitol inhibitors of hexoaminidase and glycosidase” (The Scripps Research Institute, priority 1999, dated 2006).

For orientation: Ki means a dissociation constant, usually derived from enzyme kinetics or from competition with a known ligand.

Entries after “also recorded” stand apart in the source; their conditions may differ.

One experiment concerns β-glucosidase. Briefly: Inhibition of β-glucosidase, kinetic analysis by capillary zone electrophoresis. The experiment is classed as biochemical. Particulars: sweet almond enzyme, CZE. As for the experimental part: (§1) Initially, the total volume of assay solution was reduced because this is the only way to reduce the amount of enzyme and substrate used in the assay. The 96-well microtiter plate with a round bottom was used for the assay, and each well was sealed with tape. Thus, the assay was examined and carried out in a total volume of as little as 20 μL containing 1.76 mU of a glycosidase such as β-N-acetylhexosaminidase P. The electrophoresis was carried out using 50 mM borate buffer (pH 9.2˜10.2) as the electrolyte and the progress was monitored at 37° C. The injected volume of approximately 38.4 nL of a reaction mixture contained as little as 3.8 pmol of the substrate p-nitrophenyl (PNP) glycoside, thus the amount of PNP detected was less than 10^−12 mol. The peak corresponding to the p-nitrophenol, which appeared at around 6.5 min. in these conditions, was monitored at 405 nm.
(§2) The inhibition studies of compounds 1–9 against α- and β-glucosidases (from Saccharomyces sp. and sweet almond, respectively) were carried out. PNP-glycosides of the parent sugars were used as the substrates throughout the assay. The apparent Km and Vmax values for each substrate were calculated from the double-reciplocal plot of standard 1/v −1/[substrate] curve.^18 The Ki values were determined from a replot of the slopes of Lineweaver-Burk plots vs. the inhibitor concentrations.
Kinetic analyssis of β-glucosidase: To a 1-mL disposable cuvette was added 950 μL of 0.1 M acetate buffer (pH 5.0) solution, 20 μL of inhibitor solution, and 20 μL of 20 mM p-nitrophenyl-β-D-glucopyranoside solution. The solution was well mixed and warmed at 37° C. for 5 min, then 20 μL of the enzyme solution, which was dissolved in ice-cold Tris-HCl buffer (pH 7.8) and diluted with 10 mM phosphate buffer (pH 7.0) containing 0.2% of BSA, was added. The reaction was monitored at 400 nm on a Beckmann DU-70 spectrophotometer for 15 seconds, and the initial rate of hydrolysis was calculated. The same procedure was repeated with three other substrate concentrations. After the initial rates were accumulated, the corresponding Lineweaver-Burk plot at that inhibitor concentration was constructed.
(§3) Condition of capillary zone electrophoresis: Assays were performed on a Waters Quanta 4000E capillary electrophoresis system, which was equipped with a 53 cm×75 μm fused i.d. silica capillary. Detection was carried out by on-column measurement of u.v. absorption at 405 nm at 7.5 cm from the cathode. The capillary used was pretreated or regenerated with 0.1 M KOH (2 min) and elution buffer before each injection. Samples were loaded by means of hydrostatic pressure at 10 cm height for 30 sec (ca 38.4 nl). […] Pherograms were recorded on Millennium 2010 system from Millipore Corp. […]

A further experiment relates to α-glucosidase. Kind of experiment: Inhibition of α-glucosidase, kinetic analysis by capillary zone electrophoresis. The experiment is classed as biochemical. To be noted: Saccharomyces sp. enzyme, CZE. As for the experimental part: as §1, §2
Kinetic analysis of α-glucosidase: To a 1-mL disposable cuvette was added 950 μL of 0.1 M phosphate buffer (pH 7.0) solution, 20 μL of inhibitor solution, and 20 μL of 20 mM p-nitrophenyl-α-D-glucopyranoside solution. The solution was well mixed and warmed at 37° C. for 5 min, then 20 μL of the enzyme solution in 10 mM phosphate buffer (pH 7.0) containing 0.2% of BSA was added. The reaction was monitored at 400 nm on Beckmann DU-70 spectrophotometer for 15 seconds, and the initial rate of hydrolysis was calculated. The same procedure was repeated with three other substrate concentrations. After the initial rates were accumulated, the corresponding Lineweaver-Burk plot at that inhibitor concentration was constructed.
as §3

Experiment [1] concerns the target T1, β-N-acetylhexosaminidase A (Homo sapiens, UniProt P06865+P07686). Kind of experiment: β-N-acetylhexosaminidase A inhibition with MUG and MUGS substrates (FIGS. 13A, 13B). In kind it is biochemical.
Experiment [2] has as its target α-glucosidase from baker's yeast. Particulars: reported by Watson et al.; cited from earlier work.
Experiment [3] addresses β-glucosidease from Almond. To be noted: β-glucosidase from Almond, reported by Watson et al.; cited from earlier work.
The next experiment has as its system GAGs. Kind of experiment: Whole cell assay of GAG concentration. The experiment is classed as cell-based.
Experiment [4] deals with T1, β-N-acetylhexosaminidase A. Kind of experiment: Inhibition of β-N-acetylhexosaminidase A from human placenta. The experiment is classed as biochemical. Also noted: Kinetic analysis of β-N-acetylhexosaminidase from human placenta; purchased Sigma Chemical Co. (St. Louis, Mo., USA); host or cells: human placenta. To be noted: β-N-acetylhexaoaminidases A from human placenta. As for the experimental part:
Condition of capillary zone electrophoresis: Assays were performed on a Waters Quanta 4000E capillary electrophoresis system, which was equipped with a 53 cm×75 μm fused i.d. silica capillary. Detection was carried out by on-column measurement of u.v. absorption at 405 nm at 7.5 cm from the cathode. The capillary used was pretreated or regenerated with 0.1 M KOH (2 min) and elution buffer before each injection. Samples were loaded by means of hydrostatic pressure at 10 cm height for 30 sec (ca 38.4 nl). Electrophoresis was performed at 20 kV using 50 mM sodium borate (pH 9.2 for β-N-Acetylglucosaminidase assays, pH 9.4 for β-glucosidase assays, pH 10.2 for α-glucosidase and β-N-acetylhexosaminidase assay) as electrolyte at a constant temperature of 37° C. Pherograms were recorded on Millennium 2010 system from Millipore Corp.
Kinetic analysis of β-N-acetylhexosaminidase from human placenta: Incubations were performed in a total volume of 20 μL. Unless otherwise stated, reaction mixtures contained 100 mM citrate buffer (pH 4.5), various amount of p-NP-GlcNAc (0.1–1.1 mM) and various amount of inhibitor with 3.35 mU of β-N-acetylhexosaminidase A and 1.76 mU of β-N-acetylhexosaminidase P. After preincubation for 10 min at 37° C., the reaction was started by the addition of β-N-Acetylglucosaminidase and the reaction mixture was incubated for 15 min at 37° C. […]

The next experiment deals with β-N-acetylhexoaminidases. Briefly: Intracellular β-N-acetylhexoaminidases activity (FIG. 12). The experiment is classed as cell-based.
Experiment [5] concerns the target β-N-acetylglucosaminidase. Kind of experiment: Inhibition of β-N-acetylglucosaminidase, kinetic analysis by CZE. The experiment is classed as biochemical. Particulars: β-N-acetylglucosaminidase from bovine kidney, substrate PNP-GlcNAc, replot of Lineweaver-Burk slopes. As for the experimental part: as §1
The inhibition studies of compounds 1–9 against α- and β-glucosidases (from Saccharomyces sp. and sweet almond, respectively) were carried out. PNP-glycosides of the parent sugars were used as the substrates throughout the assay. The apparent Km and Vmax values for each substrate were calculated from the double-reciplocal plot of standard 1/v −1/[substrate] curve.^18 The Ki values were determined from a replot of the slopes of Lineweaver-Burk plots vs. the inhibitor concentrations. […]

T1 sequence (P06865 89-529): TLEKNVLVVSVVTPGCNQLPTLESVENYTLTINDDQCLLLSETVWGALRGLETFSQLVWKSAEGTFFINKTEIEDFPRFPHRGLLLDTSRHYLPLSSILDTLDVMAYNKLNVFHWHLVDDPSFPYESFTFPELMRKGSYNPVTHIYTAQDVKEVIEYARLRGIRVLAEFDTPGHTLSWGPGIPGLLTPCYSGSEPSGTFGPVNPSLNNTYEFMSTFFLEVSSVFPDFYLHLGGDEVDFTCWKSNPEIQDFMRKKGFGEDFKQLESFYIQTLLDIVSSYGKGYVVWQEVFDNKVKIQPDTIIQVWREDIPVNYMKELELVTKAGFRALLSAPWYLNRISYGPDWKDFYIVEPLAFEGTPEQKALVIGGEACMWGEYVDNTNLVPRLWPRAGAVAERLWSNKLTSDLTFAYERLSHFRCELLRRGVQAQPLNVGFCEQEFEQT
T1 sequence (P06865 23-74 limits assumed): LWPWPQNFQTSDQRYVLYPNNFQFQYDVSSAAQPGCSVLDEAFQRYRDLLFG
T1 sequence (P07686 315-556 limits assumed): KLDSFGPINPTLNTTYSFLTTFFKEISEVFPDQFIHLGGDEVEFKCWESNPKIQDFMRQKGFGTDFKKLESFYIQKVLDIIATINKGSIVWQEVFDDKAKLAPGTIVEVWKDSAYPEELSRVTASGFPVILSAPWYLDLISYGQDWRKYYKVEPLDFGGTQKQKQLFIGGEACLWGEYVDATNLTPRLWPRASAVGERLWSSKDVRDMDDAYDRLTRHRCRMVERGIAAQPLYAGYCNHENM
T1 sequence (P07686 122-311 limits assumed): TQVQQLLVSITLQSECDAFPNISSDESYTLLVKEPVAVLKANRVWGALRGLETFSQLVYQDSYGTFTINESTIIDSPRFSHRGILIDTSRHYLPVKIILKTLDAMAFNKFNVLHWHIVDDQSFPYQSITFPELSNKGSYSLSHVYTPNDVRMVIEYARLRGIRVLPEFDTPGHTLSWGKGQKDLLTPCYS
T1 sequence (P07686 50-107 limits assumed): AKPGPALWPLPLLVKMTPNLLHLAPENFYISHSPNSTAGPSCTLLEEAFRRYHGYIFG

Regarding `OC[C@H](O)[C@H]1N[C@H](CO)[C@@H](O)[C@H]1O` [Compound 1, (2R,3S,4R,5R,1′R)-5-hydroxymethyl-3,4-dihydroxy-2-(1′,2′-dihydroxy)ethyl-pyrrolidine], the “inhibitory activity against β-glucosidase” value in the experiment with β-glucosidase was “weak inhibitor”. In the experiment with α-glucosidase, the “inhibitory activity against α-glucosidase” value is reported as “weak inhibitor”.

With `CC(=O)NC[C@@H](O)[C@H]1N[C@H](CO)[C@@H](O)[C@@H]1O` [Compound 6], in the experiment on β-glucosidase, the “inhibitory activity against β-glucosidase” value is recorded as “potent inhibitors; also recorded: identical inhibitory activity to 2”. Moreover, in the experiment with α-glucosidase, the “inhibitory activity against α-glucosidase” value is “identical inhibitory activity to 2”.

Regarding Sulfated NAG-thiozoline [Compound 108], in [1], the “inhibition activity towards MUGS compared with MUG” value is listed as “higher inhibition activity towards the 6-sulfate-4-methyl-umbelliferyl-β-D-N-acetylglucosamine (MUGS) than to 4-methyl-umbelliferyl-β-D-N-acetylglucosamine (MUG)”.

Take `OC[C@H](O)[C@@H]1N[C@H](CO)[C@@H](O)[C@@H]1O` [Compound 2, (1′R,2S,3R,4R,5R)-3,4-dihydroxy-2-[1′,2′-dihydroxy-ethyl]-5-hydroxymethyl-pyrrolidine]: the “inhibitory activity against β-glucosidase” value with β-glucosidase is “potent inhibitory activities”. For the same molecule, the Ki in experiment [2] was 85000 µM; in experiment [3] it was 4000 µM. Also, in the experiment with α-glucosidase, the “inhibitory activity against α-glucosidase” value is on record as “potent inhibitory activities”.

For `OC[C@H]1N[C@H](CNC[C@H]2N[C@H](CO)[C@@H](O)[C@@H]2O)[C@@H](O)[C@@H]1O` [Compound 9, N,N-di-{[(2R,3R,4R,5R)-(3,4-hydroxy-5-hydroxymethyl)-pyrrolidine]methyl} amine], in the experiment with β-glucosidase, the “inhibitory activity against β-glucosidase” value is “inhibitory activity at the same level as 1 and 7”. Besides, the “inhibitory activity against α-glucosidase” value in the experiment with α-glucosidase is listed as “as effective as 2”.

`CC(=O)NC[C@@H]1[C@@H](O)[C@H](O)[C@@H](CO)N1C` [Compound 4, (2R,3R,4R,5R)-N-Methyl-(2-acetamidomethyl-3,4-dihydroxy-5-hydroxymethyl)-pyrrolidine]: in the experiment with GAGs, the “GAG's intracellular concentration” value is “increase” and the “GAGs' extracellular concentration” value is on record as “decrease”. The Ki in [4] was 0.024 µM. In the experiment with β-N-acetylhexoaminidases, the “intracellular β-N-acetylhexaoaminidases activity” value is given as “dramatically decreased”. The same molecule yielded a Ki in [5] of 0.11 µM.

As to `CC1=N[C@@H]2[C@@H](O)[C@H](O)[C@@H](CO)O[C@@H]2S1` [Compound 107, NAG-thioazoline], the “inhibition activity towards MUGS compared with MUG” value in [1] is “higher inhibition activity to MUG than to MUGS”.
